pEC50: −log10 of the molar value. Values after ≈ are worked out from the molar mass of the structure shown. Read-outs that look alike come from different tables or passages of the source. Each block holds one compound with its values, some of them ahead of it.
Legend:
[1] = Solubility test of crystal form A in different solvents; assay type: physicochemical; conditions: thermodynamic from solid
Protocol: (§1) Solubility Test of Crystal Form a in Different Solvents Add 1^˜1.5 mg crystal form A of the compound 1 in volumetric flask, then single solvent or mixed solvent is added into the flask with multiple times until the solution become clear or solid particles disappear. The solubility of crystal form A in different solvents is determined thereby.

HFMD virus EV71 = test: EV71 in-vitro cytopathic effect (CPE) test; assay type: cell-based; conditions: Enterovirus A, EV71, 72 h; RD cells, 3 days, CCK8 readout; read-out: EC50 by EC71 CPE test, EV71
Description: Activity Evaluation In Vitro Experimental 1: Test of EV71 In-Vitro Cytopathic Effect (CPE) Purpose of Experiment: To test the in-vitro antiviral activity and cytotoxicity of a compound to HFMD virus EV71 by means of cytopathic effect (CPE) test. Test Materials: 1. Virus strain: Shenzhen/120F1/09 2. Cell line: RD cells of human rhabdomyoma 3. Cell culture media: DMEM medium added with 10% serum, Penicillin/Streptomycin and L-Glutannine (1^×) 4. Test reagent: cellular activity test reagent CCK8 Test Method: 1. Cell inoculation: digest off the RD cells from the attached state, then dilute them with culture medium to a density of 80000/ml and inoculate 100 μl into the micro wells of the 96-well plate. 2. Dilution of Compound: Step 1: prepare the dry powder of a compound to be tested into a 10 mM solution in DMSO. Then dilute the compound by three times to eight concentration points. Dilute the reference compounds with the same method. Step 2: further dilute the diluted solution of the compound in DMSO with cell culture medium. Add 10 μl DMSO solution for each well into 240 μl culture medium. 3. Add the diluted compound solution by 50 μl each well into the 96-well plate inoculated with cells (double holes, final concentration of DMSO is 1%). 4. […] Use ELIASA to read the absorbancy at the wavelength of 450 nm and 630 nm. […]

[2] = Solubility test of crystal form B in different solvents; assay type: physicochemical; conditions: thermodynamic from solid; for solubility at 4 h: read-out: Solubility (mg/mL) 4 h; for solubility at 24 h: read-out: Solubility (mg/mL) 24 h
Protocol: as §1, with “Form B” for “Form a”, “form B” for “form A”, “compound 2” for “compound 1”

[3] = aqueous buffer, pH 3.5 buffer solution
[4] = aqueous buffer, pH 4.5 buffer solution
[5] = aqueous buffer, pH 5.5 buffer solution
[6] = aqueous buffer, pH 6.5 buffer solution
[7] = aqueous buffer, pH 6.8 buffer solution
[8] = aqueous buffer, pH 7.5 buffer solution
[9] = saline or isotonic, normal saline
[10] = simulated gastric fluid, 0.01N HCl
[11] = simulated gastric fluid, 0.1N HCl

solubility ([1]; aqueous with cosolvent or surfactant or cyclodextrin, solvent: Acetone-water (3:1)): < 2240 µg/mL
solubility ([1]; aqueous with cosolvent or surfactant or cyclodextrin, solvent: Ethanol-water (3:1)): < 2320 µg/mL
solubility ([1]; aqueous with cosolvent or surfactant or cyclodextrin, solvent: Methanol-water (3:1)): < 2070 µg/mL
solubility ([1]; organic solvent or mixture, solvent: 1,4-dioxane): 11800 to 13200 µg/mL (≈ 23.5 to 26.3 mM)
solubility ([1]; organic solvent or mixture, solvent: 2-Methyltetrahydrofuran): < 2180 µg/mL
solubility ([1]; organic solvent or mixture, solvent: acetone): 5580 to 7430 µg/mL (≈ 11.1 to 14.8 mM)
solubility ([1]; organic solvent or mixture, solvent: ethanol): < 2090 µg/mL
solubility ([1]; organic solvent or mixture, solvent: ethyl acetate): < 2130 µg/mL
solubility ([1]; organic solvent or mixture, solvent: methanol): < 1980 µg/mL
pEC50 (HFMD virus EV71): ≥ 8.00
SMILES: CCn1nnc(-c2ccc(OCCC(C)(C)CCN3CCN(c4ccnc(N)c4)S3(=O)=O)nc2)n1 [Compound 1]

solubility at 4 h [2, 3]: 232 mg/mL (≈ 463 mM)
solubility at 24 h [2, 3]: 186 mg/mL (≈ 370 mM)
solubility at 4 h [2, 4]: 6.12 mg/mL (≈ 12.2 mM)
solubility at 24 h [2, 4]: 4.54 mg/mL (≈ 9.05 mM)
solubility at 4 h [2, 5]: < 0.1 mg/mL
solubility at 24 h [2, 5]: < 0.1 mg/mL
solubility at 4 h [2, 6]: < 0.1 mg/mL
solubility at 24 h [2, 6]: < 0.1 mg/mL
solubility at 4 h [2, 7]: < 0.1 mg/mL
solubility at 24 h [2, 7]: < 0.1 mg/mL
solubility at 4 h [2, 8]: < 0.1 mg/mL
solubility at 24 h [2, 8]: < 0.1 mg/mL
solubility at 4 h [2, 9]: 42.9 mg/mL (≈ 85.5 mM)
solubility at 24 h [2, 9]: 43.4 mg/mL (≈ 86.6 mM)
solubility at 4 h [2, 10]: > 998 mg/mL
solubility at 24 h [2, 10]: > 986 mg/mL
solubility at 4 h [2, 11]: > 873 mg/mL
solubility at 24 h [2, 11]: > 935 mg/mL
solubility at 4 h ([2]; water): 416 mg/mL (≈ 829 mM)
solubility at 24 h ([2]; water): 346 mg/mL (≈ 690 mM)
SMILES: CCn1nnc(-c2ccc(OCCC(C)(C)CCN3CCN(c4ccnc(N)c4)S3(=O)=O)nc2)n1 [Compound 2]

From patent publication US10227339B2, “Salt form and crystal form of 1,2,5-thiadiazolidin-1,1-dioxide, preparation method thereof and intermediate” (JIANGSU KANION PARMACEUTICAL CO. LTD, priority 2015, dated 2019)
